According to ChEMBL document CHEMBL1148992, “KB cell culture I. Role in discovery of antitumor agents from higher plants” (1982):
≈ marks a conversion by molar mass, not a printed value.

Test system: P388
Assay: In vivo cytotoxicity against mouse P388 cells relative to control
Assay type: functional
Settings: not given

| SMILES | T/C [%] |
| --- | --- |
| COc1cc2c[n+](C)c3c4cc(OC)c(OC)cc4ccc3c2cc1OC | 200 |
| Cc1cc2c(C(C)C)c(O)c(O)c(C=O)c2c(O)c1-c1c(C)cc2c(C(C)C)c(O)c(O)c(C=O)c2c1O [GOSSYPOL] | 150 |
| CC(C)[C@](O)(C(=O)OCC1=CC[N+]2([O-])CC[C@@H](O)[C@@H]12)[C@H](C)O (stereo partly specified) [INDICINE N-OXIDE] | 262 |
| COc1cc2c(ccc3c4cc(OC)c(OC)cc4c[n+](C)c23)cc1O.[Cl-] [FAGARONINE] | 270 |

Test system: KB
Assay: Cytotoxicity against human KB cells
Assay type: functional
Settings: read-out: ED50 (the source's name)

| SMILES | EC50 [µg/mL] |
| --- | --- |
| COc1cc2c(c(OC)c1OC)-c1ccc(OC)c(=O)cc1[C@@H](NC(C)=O)CC2 [COLCHICINE] | 0.23 (≈ 0.576 µM) |
| COc1ccc(C[C@H]2C(=O)N[C@@H](C)C(=O)N(C)[C@@H]3C(=O)N(C)[C@@H](Cc4ccc(O)c(c4)Oc4ccc(cc4)[C@@H]3O)C(=O)N[C@@H](C)C(=O)N[C@@H](C)C(=O)N2C)cc1 [BOUVARDIN] | 8.8 (≈ 11.4 µM) |
| COC(=O)C[C@](O)(CCCC(C)(C)O)C(=O)O[C@@H]1C(OC)=C[C@]23CCCN2CCc2cc4c(cc2[C@H]13)OCO4 [OMACETAXINE MEPESUCCINATE] | 3.9 (≈ 7.15 µM) |
| C[C@H]1C(=O)O[C@@H]2CCN3CC=C(COC(=O)[C@](C)(O)[C@]1(C)O)[C@H]23 [MONOCROTALINE] | > 100 |
| CC[C@]1(O)C[C@H]2CN(CCc3c([nH]c4ccccc34)[C@@](C(=O)OC)(c3cc4c(cc3OC)N(C=O)[C@H]3[C@@](O)(C(=O)OC)[C@H](OC(C)=O)[C@]5(CC)C=CCN6CC[C@]43[C@@H]65)C2)C1 [VINCRISTINE] | 1.3 (≈ 1.58 µM) |
| CC(=O)O[C@H]1C(=O)O[C@@H]2C[C@H]3C(C)=CC(=O)[C@@H](O)[C@]3(C)[C@H]3[C@]4(O)OC[C@]32[C@@H]1[C@@H](C)[C@H]4O [HOLACANTHONE] | 6.8 (≈ 15.6 µM) |
| COc1cc(C[C@H]2c3cc(OC)c(OC)cc3CCN2C)c(Oc2cc3c(cc2OC)-c2c(OC)c(OC)cc4c2[C@H](C3)N(C)CC4)cc1OC [THALICARPINE] | 3.7 (≈ 5.31 µM) |
| CC(C)[C@]12O[C@H]1[C@@H]1O[C@]13[C@]1(O[C@H]1C[C@H]1C4=C(CC[C@@]13C)C(=O)OC4)[C@@H]2O [TRIPTOLIDE] | 2.6 (≈ 7.21 µM) |
| COC(=O)[C@@]12OC[C@]34[C@H]([C@@H](O)[C@@H]1O)[C@@]1(C)CC(=O)C(O)=C(C)[C@@H]1C[C@H]3OC(=O)[C@H](OC(=O)/C=C(\C)C(C)C)[C@@H]24 [BRUCEANTIN] | 17 (≈ 31 µM) |
| COc1cc([C@@H]2c3cc4c(cc3[C@H](O)[C@H]3COC(=O)[C@H]23)OCO4)cc(OC)c1OC [PODOFILOX] | < 1 |
| CN[C@H]1CCc2cc(OC)c(OC)c(OC)c2-c2ccc(OC)c(=O)cc21 [DEMECOLCINE] | < 0.25 |
| CC[C@H]1CN2CCc3cc(OC)c(OC)cc3[C@@H]2C[C@@H]1C[C@H]1NCCc2cc(OC)c(OC)cc21 [EMETINE] | < 1 |
| COc1ccc2[nH]c3c(C)c4ccncc4c(C)c3c2c1 | 8.7 (≈ 31.5 µM) |
| CC[C@@]1(O)C(=O)OCc2c1cc1n(c2=O)Cc2cc3ccccc3nc2-1 [CAMPTOTHECIN] | 2.3 (≈ 6.6 µM) |
| COc1cc2cc(c1Cl)N(C)C(=O)C[C@H](OC(=O)[C@H](C)N(C)C(C)=O)[C@]1(C)O[C@H]1[C@H](C)[C@@H]1C[C@@](O)(NC(=O)O1)[C@H](OC)/C=C/C=C(\C)C2 [MAYTANSINE] | 0.51 (≈ 0.737 µM) |
| COc1ccc2cc1Oc1ccc(cc1)C[C@H]1c3cc(c(OC)cc3CCN1C)Oc1c(OC)c(OC)cc3c1[C@@H](C2)N(C)CC3 | 10 (≈ 16.1 µM) |
| CC(=O)O[C@H]1C(=O)[C@@]2(C)[C@H]([C@H](OC(=O)c3ccccc3)[C@]3(O)C[C@H](OC(=O)[C@H](O)[C@@H](NC(=O)c4ccccc4)c4ccccc4)C(C)=C1C3(C)C)[C@]1(OC(C)=O)CO[C@@H]1C[C@@H]2O [PACLITAXEL] | 8.9 (≈ 10.4 µM) |
| COc1ccc2cc1Oc1ccc(cc1)C[C@H]1c3cc(c(OC)cc3CCN1C)Oc1c(OC)c(OC)cc3c1C(C2)N(C)CC3 (mixture of isomers) | 22 |
| Cc1c2ccncc2c(C)c2c1[nH]c1ccccc12 [ELLIPTECINE] | 0.36 (≈ 1.46 µM) |
| COc1cc2c3c(c4ccc(OC)c(OC)c4c2cc1OC)CN1CCC[C@@H]1C3 [TYLOCREBRINE] | 0.013 (≈ 0.033 µM) |
| COc1cc2c[n+](C)c3c4cc5c(cc4ccc3c2cc1OC)OCO5.[Cl-] [NITIDINE CHLORIDE] | 4.3 |
| CC(C)[C@]12O[C@H]1[C@@H]1O[C@]13[C@]1(O[C@H]1C[C@H]1C4=C(C(=O)OC4)[C@@H](O)C[C@@]13C)[C@@H]2O [TRIPDIOLIDE] | 2.8 (≈ 7.44 µM) |
